# Results published in patent US6960611B2, “Sulfonyl-containing 2,3-diarylindole compounds, methods for making same, and methods of use thereof” (Institute of Materia Medica, priority 2002, dated 2005).
# Key:
# [1] = target: T1, COX-2 (Mus musculus, UniProt Q05769); assay: COX-2 assay: PGE2 release (RIA) from LPS-stimulated mouse peritoneal macrophages; format: cell-based, mice; conditions: LPS 1 mg/L 9 h, PGE2 by RIA
# T1 construct: endogenous in cells; host or cells: thioglycollate-elicited peritoneal macrophages of male C57BL-6J mice, stimulated with LPS
# T1 sequence (Q05769 18-604): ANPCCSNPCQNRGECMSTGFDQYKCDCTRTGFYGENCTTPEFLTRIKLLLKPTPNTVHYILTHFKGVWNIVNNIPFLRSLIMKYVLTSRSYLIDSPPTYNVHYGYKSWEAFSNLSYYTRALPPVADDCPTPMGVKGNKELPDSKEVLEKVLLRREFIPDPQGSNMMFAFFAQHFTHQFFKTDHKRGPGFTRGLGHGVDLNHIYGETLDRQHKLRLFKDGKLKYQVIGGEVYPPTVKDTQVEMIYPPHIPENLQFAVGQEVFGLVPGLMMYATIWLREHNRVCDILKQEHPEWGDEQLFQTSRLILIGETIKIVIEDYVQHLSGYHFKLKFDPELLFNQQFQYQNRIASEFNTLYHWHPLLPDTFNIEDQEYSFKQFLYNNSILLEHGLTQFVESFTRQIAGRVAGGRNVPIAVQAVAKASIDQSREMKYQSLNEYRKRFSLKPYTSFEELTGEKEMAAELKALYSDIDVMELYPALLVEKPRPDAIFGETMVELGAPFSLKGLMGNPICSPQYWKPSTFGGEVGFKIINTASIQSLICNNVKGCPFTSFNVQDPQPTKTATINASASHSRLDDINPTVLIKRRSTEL
# Description: Cell culture: Adherent macrophages were harvested from the peritoneal cells of male mice (C57BL-6J, Level 2, from Experiment Animal Center, Academy of Military Medical Science) 3 d after the injection (ip) of brewer thioglycollate medium (5 mL/100 g body weight). […] Cell viability was examined by trypan blue dye exclusion. All incubation procedures were performed with 5% CO2 in humidified air at 37° C.
# COX-2 assay: Macrophages were incubated with test compound at different concentrations or solvent (Me2SO) for 1 h and were stimulated with LPS 1 mg/L for 9 h. The amount of PGE2 in supernatants was measured by RIA. The inhibitory ratio was calculated using the same Formula as in COX-1 assay section. Cs, Ct, Cc refer to PGE2 concentration in supernatants of LPS, test compound, and control groups, respectively.
# Statistical analysis: Data were expressed as the mean±SD of more than three independent experiments. Dose-inhibitory effect curves were fit through “uphill dose response curves, variable slope” using Prism, GraphPad (version 3.00): [formula]
# [2] = test system: carrageenan-induced foot pad edema; assay: Rat carrageenan-induced foot pad edema assay; format: in vivo; conditions: 10 mg/kg oral
# Description: Male Sprgue-Dawley rats (190-220 g ) were fasted with free access to water at least 16 h prior experiments. The rats were dosed orally with a 1 ml suspension of test compound in vehicle (0.5% methyl cellulose and 0.025% Tween-20) or with vehicle alone. One hour later a subplantar injection of 0.1 ml of 1% solution of carageenan in 0.9% strile saline was administered to the right hind foot pad. Paw volume was measured with a displacement plethysmometer 2, 3, and 4 h after carrageenan injection.
SMILES,IC50 [1] [nM],melting point [°C],edema (paw volume increase) ([2]; 2 h after carrageenan) [%],edema (paw volume increase) ([2]; 3 h after carrageenan) [%],inhibitory percentage of edema ([2]; 3 h after carrageenan) [%],edema (paw volume increase) ([2]; 4 h after carrageenan) [%],inhibitory percentage of edema ([2]; 4 h after carrageenan) [%],inhibitory percentage of edema ([2]; 2 h after carrageenan) [%]
"CS(=O)(=O)c1ccc(-c2c(-c3ccc(Cl)cc3)[nH]c3ccc(Cl)cc23)cc1 [Example 89, 2-(4-chlorophenyl)-3-(4-methylsulfonylphenyl)-5-chloroindole]",354,269 to 271,58.6 ± 15.8,66.5 ± 13.4,46.1,58.4 ± 13.8,29.9,–
"COc1ccc(-c2[nH]c3ccc(Cl)cc3c2-c2ccc(S(C)(=O)=O)cc2)cc1 [Example 90, 2-(4-methoxyphenyl)-3-(4-methylsulfonylphenyl)-5-chloroindole]",2.81,246 to 248,44.2 ± 11.9,46.5 ± 5.7,52.4,40.8 ± 5.3,49.6,38.1
"CC(=O)Oc1ccccc1-c1[nH]c2ccc(Cl)cc2c1-c1ccc(S(C)(=O)=O)cc1 [Example 93, 2-(2-acetyloxyphenyl)-3-(4-methylsulfonylphenyl)-5-chloroindole]",6,238 to 240,49.5 ± 8.2,54.4 ± 8.9,44.3,53.6 ± 11.4,33.5,30.7
"CC(=O)Oc1ccc(-c2[nH]c3ccc(Cl)cc3c2-c2ccc(S(C)(=O)=O)cc2)cc1 [Example 94, 2-(4-acetyloxyphenyl)-3-(4-methylsulfonylphenyl)-5-chloroindole]",7.16,248 to 250,58.8 ± 11.4,62.1 ± 7.1,36.3,56.4 ± 11.7,30.0,17.6

# These reach a lower IC50 [1]. Values come first.
IC50 [1] [nM],melting point [°C],SMILES,edema (paw volume increase) ([2]; 2 h after carrageenan) [%],edema (paw volume increase) ([2]; 3 h after carrageenan) [%],inhibitory percentage of edema ([2]; 3 h after carrageenan) [%],edema (paw volume increase) ([2]; 4 h after carrageenan) [%],inhibitory percentage of edema ([2]; 4 h after carrageenan) [%],inhibitory percentage of edema ([2]; 2 h after carrageenan) [%]
2.55,223 to 225,"NS(=O)(=O)c1ccc(-c2c(-c3ccccc3)[nH]c3ccccc23)cc1 [Example 101, 2-phenyl-3-(4-aminosulfonylphenyl)indole]",36.6 ± 8.9,39.1 ± 15.4,36.1,33.6 ± 16.5,44.2,–
1.76,246 to 248,"CS(=O)(=O)c1ccc(-c2c(-c3ccccc3F)[nH]c3ccc(Cl)cc23)cc1 [Example 92, 2-(2-fluorophenyl)-3-(4-methylsulfonylphenyl)-5-chloroindole]",31.3 ± 17,44.6 ± 13.7,54.3,35.4 ± 18.8,56.1,56.2
0.216,239 to 241,"CS(=O)(=O)c1ccc(-c2c(-c3ccccc3)[nH]c3ccccc23)cc1 [Example 100, 2-phenyl-3-(4-methylsulfonylphenyl)indole]",42.8 ± 15.1,54.4 ± 7.9,44.3,43.5 ± 8.9,46.1,40.1
